For 23 molecules, GI50 and TGI results are on record in PubChem BioAssay (NCI).

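Protocol summary: plate cells (96-well), add compound at 5 concentrations, incubate 48 h, interpolate endpoints linearly. Abbreviation: GI50, concentration required for 50% inhibition of growth. Definition used: TGI = concentration required for complete inhibition of growth.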

What all share (assay): DTP human tumour cell line panel, 48 h
Assay [1] has as its system HCC-2998 colon.
Assay [2] concerns HL-60(TB) leukemia.
In assay [3] the test system is NCI-H226 lung.
Assay [4] relates to NCI-H522 lung.
Assay [5] deals with OVCAR-5 ovarian.
Assay [6] deals with SF-268 CNS.
In assay [7] the test system is SF-539 CNS.
In assay [8] the test system is SR leukemia.
Assay [9] has as its system SW-620 colon.
The test system of assay [10] is CAKI-1 renal.

What is called GI50 is the concentration at which growth is held to half of that of the control. As a reminder, the TGI is the concentration giving total growth inhibition. High values mean less potent growth arrest, low ones more potent growth arrest. Regarding `c1ccc2[nH]c(-c3ccc(Nc4nc(N5CCCCC5)nc(N5CCOCC5)n4)cc3)nc2c1`, the GI50 in assay [1] was 3.74 µM; in assay [2] it was 2.42 µM; in assay [3], 3.2 µM; in assay [4], 2.36 µM; in [5] it was 4.06 µM; in assay [6], 3.21 µM. Also, the GI50 in assay [7] is 2.14 µM; in assay [8] it was 0.73 µM; in assay [9], 2.34 µM. Besides, the TGI in assay [1] was over 100 µM; in assay [2] it was 5.8 µM; in assay [3], 17.7 µM; in assay [4], 6.22 µM; in assay [5], 29.3 µM; in assay [6] it was 20.1 µM. Besides, the TGI in [7] stood at 5.75 µM; in [8], 5.73 µM; in assay [9], 5.87 µM.
Consider `CC(C)(Oc1ccc(/C=C/C(=O)c2ccc(Cl)cc2)cc1)C(=O)Nc1c(Cl)cccc1Cl`, for which the TGI in assay [10] was 48.9 µM; in [1], 51.5 µM; in [3] it was 51.5 µM; in [5], over 100 µM; in [6], 90.2 µM; in [7], 28.1 µM. Further, the TGI in [8] was over 100 µM; in assay [9], 27.8 µM.
Consider `Cn1cc(C2=C(c3cn(C4CCN(Cc5ccccn5)CC4)c4ccccc34)C(=O)NC2=O)c2ccccc21`, for which the GI50 in [10] is over 21.6 µM; in assay [1], over 100 µM; in assay [2], 3.97 µM; in assay [4] it was 4.19 µM; in assay [5], over 100 µM; in assay [6], over 36.8 µM. For the same molecule, the GI50 in [7] was 3.03 µM; in assay [8], 3.19 µM; in assay [9], 4.02 µM. For the same molecule, the TGI in assay [10], in assay [1], in [2], in [4], in assay [5] and in [6] was over 100 µM each time. Besides, the TGI in [7], in assay [8] and in assay [9] was over 100 µM each time.
For the molecule `COc1ccc2[nH]c3c(c2c1)[C@H](C)C[C@@H]1C(=O)N(c2ccccc2)C(=O)[C@H]31`, the TGI in assay [10] was over 100 µM; in assay [1] it was over 100 µM; in assay [2], over 100 µM; in assay [4], 42.1 µM; in assay [5] it was over 100 µM; in assay [6] it was 63.1 µM. Moreover, the figures for the TGI in assay [7], in assay [8] and in assay [9] were 41 µM, 70.1 µM and over 100 µM, respectively.
On to `CN(C)C(=S)/N=c1\ssc(=S)n1Cc1ccncc1`, for which the TGI in [10] was 75.6 µM; in assay [1], 57.3 µM; in assay [3], over 100 µM; in assay [4], 2.99 µM; in [5] it was over 100 µM; in [6] it was over 100 µM. The TGI in [7] is 48.4 µM; in assay [8], 45.4 µM; in assay [9] it was 48.8 µM.
On to `N#CNC(N)=Nc1ccc(Cl)cc1`, for which the concentration for total growth inhibition (TGI) in assay [10], in assay [1], in assay [3], in assay [4], in assay [5] and in assay [6] was over 100 µM in each case. Besides, the TGI in assay [7], in assay [8] and in [9] was over 100 µM in each case.
Take `CCOC(=O)/C(C#N)=C\C=C(/Cl)c1ccc(Cl)cc1`: the GI50 was 5.74 µM in assay [10]; 16.1 µM in assay [1]; 27.4 µM in assay [3]; 14 µM in assay [4]; 29.7 µM in assay [5]; 27.9 µM in [6]. Besides, the values for the GI50 in [7], in assay [8] and in assay [9] were 11.3 µM, 4.78 µM and 5.94 µM, respectively. Further, the TGI is 22.5 µM in [10]; 31.1 µM in assay [1]; 83.2 µM in assay [3]; 39.9 µM in [4]; 59.4 µM in assay [5]; over 77 µM in assay [6]. Further, the TGI in [7] was 33.9 µM; in assay [8], over 100 µM; in assay [9], 26.3 µM.
With `CCOC(=O)NC(=O)c1cn(CCN2CCN(C(=O)CCCCCCCCCCC(=O)N3CCN(CCn4cc(C(=O)NC(=O)OCC)c(=O)[nH]c4=O)CC3)CC2)c(=O)[nH]c1=O`, the TGI in [10], in [1], in [3], in [4], in [5] and in assay [6] was over 100 µM in each case. Moreover, the TGI in assay [7], in assay [8] and in assay [9] was over 100 µM throughout.
Turning to `C=C1C(=O)O[C@H]2[C@H]1CC/C(C=Nc1c(N)cc(C(F)(F)F)cc1Br)=C\CC[C@@]1(C)O[C@@H]21`, the GI50 was 1.83 µM in [1]; 0.397 µM in [2]; 2.09 µM in [3]; 1.37 µM in assay [4]; 1.83 µM in assay [5]; 1.4 µM in [6]. For the same molecule, the GI50 in assay [7] was 1.51 µM; in assay [8], 1.08 µM; in assay [9], 1.53 µM. The TGI in assay [1] is 3.52 µM; in assay [2], 2.48 µM; in [3] it was 5.29 µM; in [4], 2.96 µM; in assay [5], 3.75 µM; in assay [6], 3.34 µM. Moreover, the concentration for total growth inhibition (TGI) was determined as 2.87 µM in [7], 6.73 µM in assay [8] and 3.71 µM in assay [9].
As to `CC(=O)N1CCC2(c3ccccc3N(C(C)=O)C2c2ccc(O)cc2)C1C(=O)O` (configuration not stated), the TGI in [1], in assay [2], in assay [3], in [4], in [5] and in [6] was over 100 µM each time. Also, the TGI in [7], in assay [8] and in assay [9] was over 100 µM each time.
`C=C1C[C@@H]2CC[C@@]34C[C@H]5O[C@H]6[C@@H](O3)[C@H]3O[C@H](CC[C@@H]3O[C@H]6[C@@H]5O4)CC(=O)C[C@@H]3[C@@H](OC)[C@@H](C[C@H](O)CN)O[C@H]3C[C@H]3O[C@@H](CC[C@@H]1O2)C[C@@H](C)C3=C`: the GI50 in assay [10] is 0.0358 µM; in [1] it was under 0.01 µM; in [2], under 0.01 µM; in assay [4], under 0.01 µM; in assay [5] it was under 0.01 µM; in assay [6], 0.304 µM. Also, the 50% growth inhibitory concentration (GI50) in [7], in assay [8] and in [9] was under 0.01 µM in each case. The total growth inhibition concentration (TGI) was over 100 µM in assay [10]; over 100 µM in assay [1]; under 0.0145 µM in [2]; 11.8 µM in assay [4]; over 100 µM in [5]; over 100 µM in assay [6]. The values for the TGI in assay [7], in assay [8] and in assay [9] were 0.0166 µM, over 100 µM and over 100 µM, respectively.
For the molecule `Nc1ccc(/C=C/C(=O)NCc2cc3cc(-c4ccc(C(=O)N5CCC(F)(F)CC5)cc4)cc(-c4ccc(F)cc4)c3o2)cn1`, the GI50 in assay [1] was 10.5 µM; in assay [2], 5.61 µM; in assay [3], over 100 µM; in assay [4], 0.773 µM; in assay [5] it was 8.43 µM; in assay [6], over 100 µM. The figures for the GI50 in [7], in [8] and in assay [9] were 0.118 µM, 12.9 µM and 0.0571 µM, respectively. Moreover, the TGI in assay [1], in assay [2], in [3], in assay [4], in assay [5] and in assay [6] was over 100 µM each time. Moreover, the total growth inhibition concentration (TGI) in [7], in [8] and in assay [9] was over 100 µM in each case.
`O=C(N/N=C/c1ccccc1O)c1ccccc1`: the GI50 in assay [1] was 0.6 µM; in [2] it was 2.32 µM; in assay [3], 1.94 µM; in assay [4], 2.67 µM; in [5], 2.5 µM; in assay [6], 1.07 µM. Further, the GI50 is 3.19 µM in assay [7], 1.79 µM in [8] and 2.84 µM in assay [9]. In addition, the TGI is 8.34 µM in assay [1]; 8.05 µM in assay [2]; 17.4 µM in assay [3]; 53 µM in assay [4]; over 100 µM in [5]; over 100 µM in assay [6]. Moreover, the TGI in assay [7] is 66.8 µM; in [8] it was 28.4 µM; in [9] it was over 100 µM.
As for `O=C(N/N=C/c1cccc(F)c1)c1ccncc1`, the TGI in [1] is over 100 µM; in assay [2] it was over 100 µM; in assay [3], 3.78 µM; in assay [6], over 100 µM; in [8] it was over 100 µM; in assay [9], over 100 µM.
For `COc1ccc(C(=O)NCCN(C)C)c2nc3ccccc3nc12`, the TGI in assay [10] was over 36.2 µM; in [1], 26.3 µM; in assay [3], 16.8 µM; in [4], over 100 µM; in assay [5] it was 16 µM; in [7] it was 17.6 µM. Further, the TGI was 23.3 µM in assay [8] and over 30.5 µM in assay [9].
On to `COC(=O)C(/C(=N\O)C(=O)Nc1cccc(Cl)c1C)c1cnc2ccccc2n1` (configuration not stated), for which the TGI in assay [10], in assay [1], in assay [3], in assay [4], in assay [5] and in assay [6] was over 100 µM throughout. The TGI in assay [7], in [8] and in assay [9] was over 100 µM each time.
In the case of `O=C(O)c1ccccc1/C=N/N=C1c2ccccc2-c2ccccc21`, the TGI is over 100 µM in [10]; 80.8 µM in [2]; 41.6 µM in [3]; over 100 µM in [4]; over 100 µM in assay [5]; 77.1 µM in [6]. The TGI in [7] is over 100 µM; in [8] it was 95.5 µM; in assay [9] it was over 100 µM.
As for `CCCCCCCCCCCCCCCC[N+]1(C)CCOCC1`, the GI50 in assay [10] was 5.32 µM; in [1], 1.21 µM; in assay [2], 1.31 µM; in assay [4], 2.09 µM; in [5] it was 1.14 µM; in assay [6] it was 1.63 µM. Moreover, the GI50 is 1.87 µM in assay [7], 1.28 µM in [8] and 2.05 µM in assay [9]. For the same molecule, the TGI in [10] is 22.5 µM; in assay [1] it was 2.75 µM; in assay [2], 3.35 µM; in assay [4], 5.07 µM; in assay [5], 2.89 µM; in [6], 4.22 µM. For the same molecule, the TGI in [7] was found to be 4.07 µM; in assay [8] it was 4.66 µM; in [9], 10.4 µM.
On to `C/C(=N\NC(=O)CC#N)c1c(O)cc(C)oc1=O`, for which the TGI in assay [10], in assay [1], in assay [2], in assay [3], in assay [6] and in assay [7] was over 100 µM in each case. For the same molecule, the TGI in assay [8] and in assay [9] was over 100 µM throughout.
`CSC1=Nc2ccccc2N=C(c2ccc(Cl)cc2)C1`: the TGI in assay [10], in assay [2], in [3], in [4], in assay [5] and in assay [6] was over 100 µM throughout. Moreover, the TGI in assay [7], in assay [8] and in [9] was over 100 µM each time.
On to `CC(=O)OCC1OC(N2C(=O)C(=O)c3ccccc32)C(OC(C)=O)C(OC(C)=O)C1OC(C)=O` (configuration not stated), for which the TGI in [10], in assay [1], in [3], in assay [4], in assay [6] and in assay [7] was over 100 µM each time. Further, the TGI in assay [8] and in assay [9] was over 100 µM in each case.
Consider `c1c[nH]c(CN2CCOCC2)n1`, for which the TGI in [10], in [2], in assay [3], in assay [4], in assay [5] and in [6] was over 100 µM throughout. Further, the concentration for total growth inhibition (TGI) in assay [7], in assay [8] and in [9] was over 100 µM each time.
On to `C[N+](C)(C)CC1CCCCC1O` (configuration not stated), for which the TGI in assay [10], in assay [1], in assay [3], in assay [4], in [5] and in assay [6] was over 100 µM throughout. The TGI in [7], in [8] and in [9] was over 100 µM in each case.
